# Reference: patent US9586974B2, “Cyclic N-acyl O-amino phenol CBI derivative” (THE SCRIPPS RESEARCH LINSTITUTE, priority 2013, dated 2017)
# Where “and” joins values, the source holds several entries; their conditions need not be identical. Equal entries are not always repeated.
# Legend:
# [1] = tested on: L1210 murine leukemia cells; settings: literature dose range; cited from earlier work
# [2] = tested on: L1210 murine leukemia cells; test: In vivo antitumor activity, L1210 implanted ip in B6D2F1 mice; design: species or system mouse
# Protocol: [Wolfe et al., J. Med. Chem. 2012, 55:5878-5886.] Therefore, the preliminary evaluation of the in vivo antitumor activity of the cyclic N—O pro-drugs was assessed with Compound (+)-6 and was conducted alongside seco-CBI-indole2 (Compound 4) in an antitumor model consisting of L1210 murine leukemia cells implanted ip in B6D2F1 mice traditionally used to initially compare new duocarmycin derivatives (Table 3, below).
# B6D2F1 mice were injected intraperitoneally (i.p.) with syngeneic L1210 cells (1×10^6) on day 0. Ten mice were randomly assigned to control vehicle or treatment groups for Compounds (+)-4 and (+)-6 at doses of 60, 100, 250, and 500 μg/kg/inj for Compounds (+)-4 or 60, 200, 500, 1000, and 2500 μg/kg/inj for Compounds (+)-6. Compounds (+)-4 and (+)-6 were formulated in 100% DMSO. Both compounds were injected i.p. on days 1, 5, and 9. Following injection of tumor cells, animals were monitored daily and weighed two times per week. Percent survival (T/C) for treated and control groups were determined by dividing the total survival days for each treatment group by the total survival days for the control group and multiplying×100. All animal studies were carried out in the animal facilities of The University of Kansas Medical Center with strict adherence to the guidelines of the IACUC Animal Welfare Committee of KUMC (IACUC approval #2009-1837).
# [3] = 60 μg/kg i.p. on days 1, 5 and 9
smiles,measurement,setting,value
"O=C(Nc1ccc2[nH]c(C(=O)N3C[C@@H](CCl)c4c3cc(O)c3ccccc43)cc2c1)c1cc2ccccc2[nH]1 [Compound (+)-4, seco-CBI-indole2, reference compound]",therapeutic window (dose range),[1],0.03 to 0.1 mg/kg
same,Surviving Mice (live animals after 366 days),[2]; [3],1/10
same,T/C = Treated/Control (MSP) × 100,[2]; [3],> 284 and 284
same,toxicity in tumor-bearing mice,[2]; all higher doses (100-500 μg/kg),proved toxic leading to premature death of the animals due to drug toxicity
same,toxicity in tumor-bearing mice,[2]; dosing at 60 to 500 μg/kg,premature death
